Data set [1] is described as follows: Kinetic solubility in FaSSIF (pH 6.5) at 37° C. It counts as physicochemical. Particulars: FaSSIF pH 6.5, 37° C., as obicetrapib free acid. The source says:
(§1) The amorphous form has a higher kinetic solubility and dissolution rate than the crystalline form (and by extension obicetrapib itself). Both crystalline and amorphous obicetrapib hemicalcium kinetic solubility determinations were made in biorelevant media at different pHs, namely at about 5.0 (FeSSIF conditions) and at pH of about 6.5 (FaSSIF) conditions as set forth in Example 11.28.
The concentrations in Table X are those of obicetrapib (i.e., the free acid).
(§2) The solids were magnetically stirred at 600 RPM in a shaker bath and samples were drawn with a 1.0 ml syringe at T=15 mins, 30 mins, 60 mins, 90 mins and 120 mins. The solubility was measured using HPLC method provided by the client. The compound was added to 4.0 ml glass vials at approximately 20.0 mg/ml. Samples were agitated with a vortex mixer for about 5 minutes to ensure the presence of undissolved excess powder. The sample collected at each time point was centrifuged at 1200 RPM, filtered with 0.45 μm Polytetrafluoroethylene (PTFE) filters and diluted with methanol before HPLC analysis. In order to minimize the effect of potential analyte adsorption on the filter, the initial 0.5 mL of supernatant passing through the filter was discarded prior to collecting sample for HPLC analysis.

A short description of data set [2]: Kinetic solubility in FeSSIF (pH 5.0) at 37° C. Particulars: FeSSIF pH 5.0, 37° C., as obicetrapib free acid. It counts as physicochemical.
Text: as §1
The concentrations in Table W are those of obicetrapib (i.e., the free acid).
as §2

For the next data set, the system named is Lp(a). The data set is described as follows: ROSE2 phase 2b clinical trial - Lp(a). Particulars: Exploratory Population. It counts as in vivo, human. The protocol:
(§3) The exploratory objectives of this study include the following: • To evaluate the effect of obicetrapib 10 mg+ezetimibe 10 mg combination therapy and obicetrapib 10 mg monotherapy, when used as an adjunct to high-intensity statin therapy, on non-high-density lipoprotein cholesterol (non-HDL-C), very low-density lipoprotein cholesterol (VLDL-C), HDL-C, TG, ApoE, Lp(a), and HDL-ApoE at Day 84; • To evaluate the effect of obicetrapib 10 mg+ezetimibe 10 mg combination therapy and obicetrapib 10 mg monotherapy, when used as an adjunct to high-intensity statin therapy, on the proportion of participants achieving predefined LDL-C targets at Day 84; • To assess the mean trough plasma levels of obicetrapib 10 mg+ezetimibe 10 mg combination therapy and obicetrapib 10 mg monotherapy at steady state on Days 28, 84, and 112; and • To evaluate the safety and tolerability profiles of obicetrapib 10 mg+ezetimibe 10 mg combination therapy and obicetrapib 10 mg monotherapy, when used as an adjunct to high-intensity statin therapy, assessed by clinical laboratory values and incidence of AEs.
This study will be a placebo-controlled, double-blind, randomized, Phase 2 study to evaluate the efficacy, safety, and tolerability of obicetrapib 10 mg, both in combination with ezetimibe 10 mg and as monotherapy, as an adjunct to high-intensity statin therapy. This study will take place at approximately 20 sites in the United States.
Up to 2 weeks after the Screening Visit, participants will return to the site on Day 1 (Visit 2) and confirm study eligibility before being randomized and beginning treatment. Approximately 114 eligible participants (38 participants per treatment group) will be randomized in a 1:1:1 ratio to 1 of the following treatment groups: • Combination therapy: Obicetrapib 10 mg+ezetimibe 10 mg (administered as one 10 mg obicetrapib tablet and one 10 mg ezetimibe capsule); • Obicetrapib monotherapy: Obicetrapib 10 mg (administered as one 10 mg obicetrapib tablet and 1 placebo capsule); or • Placebo (administered as 1 placebo tablet and 1 placebo capsule).
The exploratory efficacy endpoints include the following: • Percent change from Day 1 to Day 84 in non-HDL-C, VLDL-C, HDL-C, TG, ApoE, Lp(a), and HDL-ApoE for the obicetrapib 10 mg+ezetimibe 10 mg combination treatment group compared with the placebo group and for the obicetrapib 10 mg monotherapy treatment group compared with the placebo group; and • Proportion of participants at Day 84 that achieve LDL-C<2.6 mmol/L (<100 mg/dL), LDL-C<1.8 mmol/L (<70 mg/dL), and LDL-C<1.3 mmol/L (<50 mg/dL) for the obicetrapib 10 mg+ezetimibe 10 mg combination treatment group compared with the placebo group and for the obicetrapib 10 mg monotherapy treatment group compared with the placebo group.
Blood samples for the lipid profile must be obtained under fasting conditions (ie, after the participant has fasted for approximately 10 hours). For the purposes of this study, fasting will be defined as nothing by mouth except water and any essential medications. If a participant is not fasting, the Investigator should reschedule the visit as soon as possible. LDL-C level will be calculated using the Friedewald equation unless TG≥400 mg/dL or LDL-C≤50 mg/dL; in both cases, LDL-C level will be measured directly by preparative ultracentrifugation, also referred to as beta quantification. Additionally, LDL-C will be measured by preparative ultracentrifugation, also referred to as beta quantification, at baseline (Visit 2) and at the end of the 12-week Treatment Period (Visit 4) for all participants.
The Modified ITT (mITT) Population will include all participants in the ITT Population who receive at least 1 dose of any study drug and have a baseline value for the LDL-C assessment. […]

Data set [3] in a line: ROSE2 phase 2b clinical trial - safety and tolerability (adverse events). It counts as in vivo, human. Particulars: Safety Population. The method, then:
as §3
The safety and tolerability profile of obicetrapib 10 mg, both in combination with ezetimibe 10 mg and as monotherapy, will be assessed by clinical laboratory assessments (chemistry and hematology), vital signs, physical examinations, and the incidence of AEs.
An AE can therefore be any unfavorable and/or unintended sign (including an abnormal laboratory finding), symptom, or disease temporally associated with the use of an investigational medicinal product, whether or not related to the investigational medicinal product. All AEs, including observed or volunteered problems, complaints, or symptoms, are to be recorded on the appropriate eCRF.
AEs, which include clinical laboratory assessment variables, will be monitored and documented from the time of first dose of study treatment until completion of Visit 5. Participants should be instructed to report any AE that they experience to the Investigator, whether or not they think the event is due to study drug. Beginning at the date of the first dose of study treatment, Investigators should make an assessment for AEs at each visit and record the event on the appropriate AE eCRF.
The Investigator will assess the severity (intensity) of each AE as mild, moderate, or severe, and will also categorize each AE as to its potential relationship to study drug using the categories of yes or no.
• Mild—An event that is easily tolerated and generally not interfering with normal daily activities. • Moderate—An event that is sufficiently discomforting to interfere with normal daily activities. • Severe—An event that is incapacitating with inability to work or perform normal daily activities.
An AE or adverse reaction is considered serious if, in the view of either the Investigator or Sponsor, it results in any of the following outcomes: • Death; • A life-threatening AE;
The Safety Population will include all participants who receive at least 1 dose of any study drug. Treatment classification will be based on the actual treatment received. The Safety Population will be the primary population used for the safety analyses.

Here are results for three compounds from patent US20250186442A1, “Obicetrapib and Ezetimibe Combination Treatment and Fixed Dose Pharmaceutical Compositions” (NewAmsterdam Pharma B.V., priority 2022, published 2025).

Turning to `CCOC(=O)N1c2ccc(C(F)(F)F)cc2[C@@H](N(Cc2cc(C(F)(F)F)cc(C(F)(F)F)c2)c2ncc(OCCCC(=O)[O-])cn2)C[C@H]1CC.CCOC(=O)N1c2ccc(C(F)(F)F)cc2[C@@H](N(Cc2cc(C(F)(F)F)cc(C(F)(F)F)c2)c2ncc(OCCCC(=O)[O-])cn2)C[C@H]1CC.[Ca+2]` [Amorphous obicetrapib hemicalcium Batch #1], the “Concentration in Solution” value in data set [1] (15 mins) was 0.060 mg/mL; in data set [1] (30 mins), 0.099 mg/mL; in data set [1] (60 mins), 0.163 mg/mL; in data set [1] (90 mins), 0.201 mg/mL; in data set [1] (120 mins), 0.244 mg/mL; in data set [2] (15 mins) it was 0.520 mg/mL. Also, the “Concentration in Solution” value came out at 0.661 mg/mL in data set [2] (30 mins), 0.675 mg/mL in data set [2] (60 mins), 0.696 mg/mL in data set [2] (90 mins) and 0.675 mg/mL in data set [2] (120 mins).
Turning to `CCOC(=O)N1c2ccc(C(F)(F)F)cc2[C@@H](N(Cc2cc(C(F)(F)F)cc(C(F)(F)F)c2)c2ncc(OCCCC(=O)[O-])cn2)C[C@H]1CC.CCOC(=O)N1c2ccc(C(F)(F)F)cc2[C@@H](N(Cc2cc(C(F)(F)F)cc(C(F)(F)F)c2)c2ncc(OCCCC(=O)[O-])cn2)C[C@H]1CC.[Ca+2]` [Amorphous obicetrapib hemicalcium Batch #2], the “Concentration in Solution” value in data set [1] (15 mins) worked out at 0.090 mg/mL; in data set [1] (30 mins), 0.14 mg/mL; in data set [1] (60 mins), 0.229 mg/mL; in data set [1] (90 mins), 0.293 mg/mL; in data set [1] (120 mins) it was 0.387 mg/mL; in data set [2] (15 mins), 0.502 mg/mL. Besides, the “Concentration in Solution” value in data set [2] (30 mins) is 0.618 mg/mL; in data set [2] (60 mins), 0.628 mg/mL; in data set [2] (90 mins), 0.658 mg/mL; in data set [2] (120 mins), 0.642 mg/mL.
Regarding `CCOC(=O)N1c2ccc(C(F)(F)F)cc2[C@@H](N(Cc2cc(C(F)(F)F)cc(C(F)(F)F)c2)c2ncc(OCCCC(=O)O)cn2)C[C@H]1CC` [Obicetrapib 10 mg], in the data set on Lp(a) (Day 84), the “Lp(a) Day 84, Mean” value is 74.75 nmol/L; the “Lp(a) Day 84, Median” value is 20.85 nmol/L; the “Lp(a) Day 84 Maximum” value amounted to 327.7 nmol/L; the “Lp(a) Day 84 Minimum” value stood at 2.8 nmol/L. Also, in the data set with Lp(a), the “Lp(a) Change from Baseline to Day 84, Mean” value was -27.66 nmol/L; the “Lp(a) Change from Baseline to Day 84, Median” value is -10.95 nmol/L; the “Lp(a) Change from Baseline to Day 84 Maximum” value is on record as 3.0 nmol/L; the “Lp(a) Change from Baseline to Day 84 Minimum” value was -148.8 nmol/L. Also, in the data set with Lp(a), the “Lp(a) Percent Change from Baseline to Day 84 (%) Maximum” value was 103.4%; the “Lp(a) Percent Change from Baseline to Day 84 (%) Minimum” value is given as −84.6%; the “Lp(a) Percent Change from Baseline to Day 84 (%), Mean” value is reported as −24.44%; the “Lp(a) Percent Change from Baseline to Day 84 (%), Median” value is on record as −22.75%. In data set [3] ((%)), the “Any TEAEs by maximum severity: Mild, (%)” value was “(20.5) %”; the “Any TEAEs by maximum severity: Moderate, (%)” value was “(7.7) %”; the “Any TEAEs by maximum severity: Severe, (%)” value was “(10.3) %”; the “Any TEAEs leading to death, (%)” value is given as “(0.0) %”. In addition, in data set [3] ((%)), the “Any serious TEAEs (TESAEs), (%)” value is “(5.1) %”; the “Any study drug-related TEAEs by maximum severity: Mild, (%)” value is reported as “(10.3) %”; the “Any study drug-related TEAEs by maximum severity: Moderate, (%)” value is on record as “(5.1) %”; the “Any study drug-related TEAEs by maximum severity: Severe, (%)” value is recorded as “(5.1) %”. Besides, in data set [3] ((%)), the “Any study drug-related TEAEs leading to discontinuation of study drug, (%)” value is reported as “(5.1) %”; the “Any study drug-related TEAEs, (%)” value is reported as “(2.6) %”; the “Any study drug-related TESAEs, (%)” value was “(2.6) %”; the “Any treatment-emergent AEs (TEAEs), (%)” value was “(20.5) %”. Further, the “Any TEAEs leading to discontinuation of study drug, (%)” value in data set [3] ((%), first line with this label (r25)) is reported as “(0.0) %”. Moreover, the “Any TEAEs leading to discontinuation of study drug, (%)” value in data set [3] ((%), last line of the table (r40)) is “(0.0) %”. Moreover, in data set [3] (column e), the “Any TEAEs by maximum severity: Mild, e” value was found to be 20; the “Any TEAEs leading to death, e” value is given as 0; the “Any serious TEAEs (TESAEs), e” value was 2; the “Any study drug-related TEAEs by maximum severity: Mild, e” value is given as 4. Also, in data set [3] (column e), the “Any study drug-related TEAEs leading to discontinuation of study drug, e” value was 5; the “Any study drug-related TESAEs, e” value was 1; the “Any treatment-emergent AEs (TEAEs), e” value turned out to be 20. Also, in data set [3] (column e, last line of the table (r40)), the “Any TEAEs leading to discontinuation of study drug, e” value is recorded as 0.
